{
  "source": "patent US8673578B2",
  "about": "“Methods of identifying antagonists of the hTAS2R46 bitter taste receptor” (Deutsches Institut für Ernahrungsforschung Potsdam-Rehbrücke, priority 2009, dated 2014)",
  "key": {"hTAS2R46 [1]": {"biological_target": "T1, hTAS2R46 (Homo sapiens, UniProt P59540)", "T1 construct": "expressed in transfected cells; host or cells: HEK293T cells stably expressing chimeric Gα16gust44, transient transfection", "T1 sequence (P59540 1-309)": "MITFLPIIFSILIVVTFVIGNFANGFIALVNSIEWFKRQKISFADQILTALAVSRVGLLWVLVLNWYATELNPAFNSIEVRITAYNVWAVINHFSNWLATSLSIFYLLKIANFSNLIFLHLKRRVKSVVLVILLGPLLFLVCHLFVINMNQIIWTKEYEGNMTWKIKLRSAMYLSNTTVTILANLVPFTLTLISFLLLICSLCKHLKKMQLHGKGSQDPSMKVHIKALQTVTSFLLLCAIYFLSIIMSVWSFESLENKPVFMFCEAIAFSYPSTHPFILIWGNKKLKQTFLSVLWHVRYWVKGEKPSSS", "assay": "calcium imaging (FLIPR), effect on agonist-dependent hTAS2R activation", "type": "cell-based", "settings": "presence of agonist strychnine 3 μM", "source_text": "(§1) Human TAS2R cDNAs were cloned into pcDNA5/FRT (Invitrogen, San Diego, Calif.). For adequate plasma membrane targeting, receptor cDNA was fused to the aminoterminal sequence of the rat somatostatin type 3 receptor at the aminoterminus of the recombinant protein (Bufe, B., T. Hofmann, et al. (2002) Nat Genet. 32(3): 397-401). For immunological detection, the Herpes simplex Glycoprotein D epitope was supplemented at the carboxyterminus of the recombinant protein (Bufe et al., supra). Receptor constructs were transiently transfected into HEK293T cells stably expressing the chimeric G protein subunit Gα16gust44 (Ueda, T., S. Ugawa, et al. (2003) J Neurosci 23(19): 7376-80) using Lipofectamine 2000 (Invitrogen, San Diego, Calif.) in 96-well plates.\n(§2) Calcium Imaging experiments were performed 24 h after transfection using a Fluorometric Imaging Plate Reader (FLIPR, Molecular Devices, Munich, Germany) as previously described (Bufe et al., supra). Taste active compounds were ordered from Sigma (Sigma-Aldrich, Taufkirchen, Germany). Absinthin, 3β hydroxy dihydro costunolide and 3β hydroxy pelenolide were kindly provided by Giovanni Appendino (Novara, Italy). Test substances were directly dissolved in C1 buffer (130 mM NaCl, 10 mM Na-Hepes, 10 mM Glucose, 5 mM KCl, 2 mM CaCl2, pH 7.4) or in DMSO, respectively. DMSO stocks were further diluted in C1 buffer not exceeding a final DMSO concentration of 1% on the cells. For the investigation of antagonistic effects, test substances were premixed. Agonists were applied at concentrations corresponding to EC90, except where indicated otherwise (Table 2). Data were collected from 3 independent experiments performed in quadruplicates and processed with SigmaPlot (SPSS, Chicago, Ill.). Fluorescence signals after application of test substances were corrected for and normalized to background fluorescence (ΔF/F═(F−F0)/F0), and baseline noise was subtracted. Calculation of dose-response curves was done by nonlinear regression using the function f(y)=((a−d)/(1+(x/EC50)^nH)+d).\nTo test 3β hydroxy dihydro costunolide and 3β hydroxy pelenolide for antagonistic or enhancing effects on hTAS2R activation, transfected cells were stimulated with cognate agonist bitter substances at EC90 concentrations (Table 2) without 3β hydroxy dihydro costunolide and 3β hydroxy pelenolide. The cellular responses after application of the agonist alone were set to 100%, responses obtained after coapplication of agonists and 100 μM 3β hydroxy dihydro costunolide or 100 μM 3β hydroxy pelenolide are shown relative to this value (FIG. 4).\nNext we determined concentrations of half-maximal inhibition of TAS2R46. FIG. 5 illustrates the concentration-inhibition curves of TAS2R46 activated by picrotoxinin in the presence of various concentrations of 3β hydroxy dihydro costunolide or 3β hydroxy pelenolide. […] In agreement with the data described above the costunolide analog appears to be more potently inhibiting TAS2R46 than the pelenolide analog. […] As expected 3β hydroxy pelenolide has to be employed at ˜6 fold higher concentrations than 3β hydroxy dihydro costunolide to achieve 50% receptor inhibition.\nNext, we established concentration-response curves for strychnine at TAS2R46 in the presence of various concentrations of 3β hydroxy dihydro costunolide.\n(§3) Finally, the impact of chemical modifications on the antagonistic properties of 3β hydroxy dihydro costunolide on hTAS2R46-expressing cells was studied. Derivatives of 3β hydroxy dihydro costunolide with site-directed modifications at C3 and C11 were generated (FIG. 7A) These derivatives were tested for activation or inhibition of hTAS2R46-expressing cells in the absence or presence of the agonist strychnine (3 μM) and half-maximum effective concentrations (EC50) or half-maximal inhibitory concentrations were calculated (FIG. 7B)."}, "hTAS2R46 [2]": {"biological_target": "T1, hTAS2R46", "assay": "calcium imaging (FLIPR), activation of hTAS2R-transfected HEK293T-Gα16gust44 cells", "type": "cell-based", "settings": "absence of agonist", "source_text": "as §1\nas §2, with “f(y)=((a−d)/(1+(x/EC50)^nH)+d). […]” for “f(y)=((a−d)/(1+(x/EC50)^nH)+d).”\nas §3"}},
  "data": [
    {"smiles": "C/C1=C\\CC(=O)/C(C)=C/[C@H]2OC(=O)[C@@H](C)[C@@H]2CC1", "note": "[3keto dihydro costunolide]", "values": [
      {"measurement": "action on hTAS2R46-expressing cells (inhibition)", "setting": "hTAS2R46 [1]", "result": "antagonists"}
    ]},
    {"smiles": "CC(=O)O[C@H]1C/C=C(\\C)CC[C@H]2[C@H](C)C(=O)O[C@@H]2/C=C/1C", "note": "[3β hydroxy dihydro costunolide acetate]", "values": [
      {"measurement": "action on hTAS2R46-expressing cells (activation)", "setting": "hTAS2R46 [2]", "result": "agonists"}
    ]},
    {"smiles": "C=C1C(=O)O[C@@H]2/C=C(\\C)CC/C=C(\\C)CC[C@@H]12", "note": "[Costunolide, reference compound]", "values": [
      {"measurement": "action on hTAS2R46-expressing cells (activation)", "setting": "hTAS2R46 [2]", "result": "agonist"}
    ]},
    {"smiles": "C/C1=C\\[C@H]2OC(=O)[C@@H](C)[C@@H]2CC/C(C)=C/CC1", "note": "[dihydro costunolide]", "values": [
      {"measurement": "action on hTAS2R46-expressing cells (activation)", "setting": "hTAS2R46 [2]", "result": "no influence on the agonistic properties"}
    ]}
  ]
}
